Assay results from PMC9981942, “Pharmacokinetics and tissue distribution of Ramulus Mori (Sangzhi) alkaloids in rats and its effects on liver enzyme activity” (Frontiers in Pharmacology, 2023).
Several values for one entry are separate records, joined by “and”; a condition that tells them apart may be missing. Equal entries are not always repeated. Where two headings read alike, the source gives them in different places.

Columns and labels:
[1] = Tissue distribution after single oral SZ-A (20 mg/kg) in ICR mice; format: in vivo
Protocol: (§1) Twenty SD rats were randomly classified into four groups corresponding to four-time points (5 and 30 min, 4 and 12 h) (n = 20; 5 animals per time point) that received SZ-A solution (40 mg/kg) via oral administration. After the completion of dose administration, plasma and tissue samples (derived from the heart, liver, spleen, lung, kidney, aortic blood vessels, brown adipose tissue, subcutaneous adipose tissue, abdominal adipose tissue, muscle (thigh skeletal muscle), pancreas, and brain) were collected at predetermined time points. Twenty-eight ICR mice were randomly classified into four groups (n = 7 per group) corresponding to four-time points (5 and 30 min, 4 and 12 h) that received SZ-A solution (20 mg/kg) via oral administration. After the completion of dose administration, tissue samples (derived from the heart, liver, spleen, lung, kidney, aortic blood vessels, brown adipose tissue, abdominal adipose tissue, muscle (thigh skeletal muscle), pancreas, and brain) were collected at predetermined time points.
(§2) Collected tissue samples were washed with normal saline. The surface moisture was removed by blotting gently with filter paper, and the weight was recorded. After adding an appropriate amount of normal saline, these tissue samples were ground into homogenates using a cryogenic grinder (JX-CL, Shanghai Jingxin, Shanghai, China). The obtained homogenates were stored at −80°C until LC-MS/MS analysis.

[2] = design: method as in Yang et al., 2017; settings: ref Yang et al., 2017, cited from earlier work
[3] = system: CYP450s in RLMs (other isoenzymes); experiment: Effect on activity of rat liver microsome isoenzymes other than CYP2C11; settings: SZ-A 8.899 μg/mL, DNJ 20 μM, FA 5 μM, DAB 8 μM
major CYP450s in HLMs = experiment: Effect on activity of the major CYP450s in human liver microsomes (all isoforms together); settings: final concentration SZ-A 8.899 μg/mL (equivalent to DNJ 20 μM), FA 5 μM, DAB 8 μM
[4] = design: method as in Nakagawa et al., 2007; settings: rats, after oral gavage of DNJ; ref Nakagawa et al., 2007; cited from earlier work
[5] = Tissue distribution after single oral SZ-A (40 mg/kg) in SD rats, plasma and 12 tissues; format: in vivo; settings: for half-life / AUC(0-t) / Tmax / Cmax: rat; for AUC(0-t): n=5, read-out: AUC(0-t)
Protocol: as §1, §2
Primary pharmacokinetic parameters, including Cmax, Tmax, area under the plasma concentration-time curve (AUC), t1/2, clearance rate, and the apparent volume of distribution, were calculated using DAS 3.2.8 (Bio Guider Co., Shanghai, China).

[6] = Sprague-Dawley, muscle (thigh skeletal muscle), Muscle, n=5
[7] = Subcutaneous adipose tissue, n=5

## OC[C@H]1NC[C@H](O)[C@@H](O)[C@@H]1O [DNJ, 1-deoxynojirimycin]
[1]
  distribution in aortic vessels compared with other tissues: lower than that in other tissues
  tissues with the highest concentrations: kidney, followed by the liver
[2]; material conservation within 24 h after oral administration of SZ-A
  form excreted: mainly excreted in their original forms
[2]; rats, after oral administration of SZ-A
  oral absolute bioavailability: 72.41% and > 70%
[2]; rats, oral SZ-A 20–500 mg/kg
  pharmacokinetic profile versus dose: non-linear pharmacokinetics
[3]
  effect on other isoenzymes in RLMs: no obvious effect
Major CYP450s in HLMs
  effect on the major CYP450s in HLMs, either inhibition or activation: no significant effect
[4]
  DNJ metabolites in plasma: did not detect any DNJ metabolites
[5]
  peak time in the brain: 4 h
  tissues with the highest concentrations: kidney, followed by the liver, aortic vessels, and brown adipose tissue
[5]; Plasma, n=5
  CLz: 35.7 ± 5.17 mL/min/kg
  Vz: 1.59 ± 0.29 L/kg
[5]; Sprague-Dawley, Brown adipose tissue, n=5
  half-life: 26.4 ± 13.2 min
[5]; Sprague-Dawley, Brown adipose tissue
  AUC(0-t): 3750 ± 995 ng·h/mL
[5]; Sprague-Dawley, Brown adipose tissue, n=5, read-out: Tmax
  Tmax: 30 min
[5]; Sprague-Dawley, Kidney, n=5
  Cmax: 68200 ± 12400 ng/mL
  half-life: 148 ± 30.6 min
[5]; Sprague-Dawley, Kidney
  AUC(0-t): 174000 ± 37100 ng·h/mL
[5]; Sprague-Dawley, Kidney, n=5, read-out: Tmax
  Tmax: 30 min
[5]; Sprague-Dawley, Liver, n=5
  Cmax: 3300 ± 893 ng/mL
  half-life: 33 ± 0.6 min
[5]; Sprague-Dawley, Liver
  AUC(0-t): 7560 ± 1840 ng·h/mL
[5]; Sprague-Dawley, Liver, n=5, read-out: Tmax
  Tmax: 25.2 ± 11.4 min
[5]; Sprague-Dawley, Lung, n=5
  Cmax: 806 ± 23.5 ng/mL
  half-life: 28.2 ± 14.4 min
[5]; Sprague-Dawley, Lung, n=5, read-out: Tmax
  Tmax: 13.2 ± 14.4 min
[5]; Sprague-Dawley, Pancreas, n=5
  Cmax: 386 ± 124 ng/mL
  half-life: 130 ± 205 min
[5]; Sprague-Dawley, Pancreas
  AUC(0-t): 2190 ± 614 ng·h/mL
[5]; Sprague-Dawley, Pancreas, n=5, read-out: Tmax
  Tmax: 30 min
[5]; Sprague-Dawley, Plasma, n=5
  Cmax: 5830 ± 843 ng/mL
  half-life: 31.2 ± 1.2 min
[5]; Sprague-Dawley, Plasma
  AUC(0-t): 13700 ± 1970 ng·h/mL
[5]; Sprague-Dawley, Plasma, n=5, read-out: Tmax
  Tmax: 30 min
[5]; [6]
  Cmax: 725 ± 279 ng/mL
  half-life: 45.6 ± 18 min
[5]; Sprague-Dawley, muscle (thigh skeletal muscle), Muscle
  AUC(0-t): 2640 ± 544 ng·h/mL
[5]; Sprague-Dawley, muscle (thigh skeletal muscle), Muscle, n=5, read-out: Tmax
  Tmax: 19.8 ± 13.8 min
[5]; Abdominal adipose tissue, n=5
  Cmax: 1270 ± 428 ng/mL
  half-life: 102 ± 135 min
[5]; Abdominal adipose tissue
  AUC(0-t): 3730 ± 1010 ng·h/mL
[5]; Abdominal adipose tissue, n=5, read-out: Tmax
  Tmax: 25.2 ± 11.4 min
[5]; Aortic blood vessels, n=5
  Cmax: 4360 ± 2870 ng/mL
  half-life: 36 ± 6.6 min
[5]; Aortic blood vessels
  AUC(0-t): 6230 ± 1790 ng·h/mL
[5]; Aortic blood vessels, n=5, read-out: Tmax
  Tmax: 4.8 min
[5]; Brain, n=5
  Cmax: 242 ± 50.3 ng/mL
  half-life: 482 ± 430 min
[5]; Brain
  AUC(0-t): 2060 ± 562 ng·h/mL
[5]; Brain, n=5, read-out: Tmax
  Tmax: 151 ± 122 min
[5]; Brown adipose tissue, n=5
  Cmax: 1420 ± 513 ng/mL
[5]; Heart, n=5
  Cmax: 588 ± 140 ng/mL
  half-life: 31.8 ± 11.4 min
[5]; Heart
  AUC(0-t): 1340 ± 373 ng·h/mL
[5]; Heart, n=5, read-out: Tmax
  Tmax: 10.2 ± 11.4 min
[5]; Lung
  AUC(0-t): 1220 ± 501 ng·h/mL
[5]; Spleen, n=5
  Cmax: 660 ± 225 ng/mL
  half-life: 37.2 ± 1.8 min
[5]; Spleen
  AUC(0-t): 1880 ± 845 ng·h/mL
[5]; Spleen, n=5, read-out: Tmax
  Tmax: 30 min
[5]; [7]
  Cmax: 577 ± 163 ng/mL
  half-life: 37.8 min
[5]; Subcutaneous adipose tissue
  AUC(0-t): 1210 ± 304 ng·h/mL
[5]; Subcutaneous adipose tissue, n=5, read-out: Tmax
  Tmax: 30 min
[5]; heart, aortic vessels, read-out: time of peak concentration in heart and aortic vessels (converted)
  Tmax: 5 min
[5]; other tissues (not named), tissues not named separately for that alkaloid, read-out: time of peak concentration in other tissues (converted)
  Tmax: 30 min
[5]; up to 12 h
  accumulation in tissues: no long-term accumulation
